{
  "source": "ChEMBL document CHEMBL1201862",
  "about": "“PubChem BioAssay data set” (2004)",
  "test_in_all_cases": "inhibition of tumour cell growth, NCI panel, 48 h",
  "key": {"[1]": {"tested_on": "CCRF-CEM"}, "[2]": {"tested_on": "COLO 205"}, "[3]": {"tested_on": "IGROV-1"}, "[4]": {"tested_on": "KM12"}, "[5]": {"tested_on": "M14"}, "[6]": {"tested_on": "M19-MEL"}, "[7]": {"tested_on": "MOLT-4"}, "[8]": {"tested_on": "NCI-H226"}, "[9]": {"tested_on": "OVCAR-5"}, "[10]": {"tested_on": "SF-268"}, "[11]": {"tested_on": "SF-539"}, "[12]": {"tested_on": "SK-MEL-2"}, "[13]": {"tested_on": "SNB-75"}, "[14]": {"tested_on": "SNB-78"}, "[15]": {"tested_on": "SW-620"}, "[16]": {"tested_on": "TK-10"}, "[17]": {"tested_on": "U-251"}, "[18]": {"tested_on": "UACC-257"}},
  "note": "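Growth conditions: 96-well plates. Treatment: test compound, 48 hours, 5 concentrations. Analysis: linear interpolation between bracketing concentrations; unreached endpoints set to highest concentration. The concentration for 50% growth inhibition is given as GI50.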 Active and inactive are the calls of the source. Rule as the data show it: active = GI50 up to about 1.1 µM and inactive = higher.",
  "data": [
    {"smiles": "CC1(C)C(=O)N(CCCCCCN2C(=O)C(C)(C)c3ccccc32)c2ccccc21", "values": [
      {"measurement": "GI50", "setting": "[1]", "value": "22.4 µM (inactive)"},
      {"measurement": "GI50", "setting": "[2]", "value": "22.1 µM (inactive)"},
      {"measurement": "GI50", "setting": "[3]", "value": "88.3 µM (inactive)"},
      {"measurement": "GI50", "setting": "[4]", "value": "37.9 µM (inactive)"},
      {"measurement": "GI50", "setting": "[5]", "value": "24.6 µM (inactive)"},
      {"measurement": "GI50", "setting": "[6]", "value": "22.6 µM (inactive)"},
      {"measurement": "GI50", "setting": "[7]", "value": "33.8 µM (inactive)"},
      {"measurement": "GI50", "setting": "[8]", "value": "26.3 µM (inactive)"},
      {"measurement": "GI50", "setting": "[9]", "value": "80.5 µM (inactive)"},
      {"measurement": "GI50", "setting": "[10]", "value": "60.8 µM (inactive)"},
      {"measurement": "GI50", "setting": "[11]", "value": "> 100 µM (inactive)"},
      {"measurement": "GI50", "setting": "[12]", "value": "48.6 µM (inactive)"},
      {"measurement": "GI50", "setting": "[13]", "value": "39.1 µM (inactive)"},
      {"measurement": "GI50", "setting": "[14]", "value": "96.4 µM (inactive)"},
      {"measurement": "GI50", "setting": "[15]", "value": "14.7 µM (inactive)"},
      {"measurement": "GI50", "setting": "[16]", "value": "58.3 µM (inactive)"},
      {"measurement": "GI50", "setting": "[17]", "value": "36.6 µM (inactive)"},
      {"measurement": "GI50", "setting": "[18]", "value": "21.8 µM (inactive)"}
    ]},
    {"smiles": "CCOC(=O)C1=C(C)NC(=S)NC1c1ccccc1", "note": "(stereo unspecified)", "values": [
      {"measurement": "GI50", "setting": "[1]", "value": "> 45.1 µM (inactive)"},
      {"measurement": "GI50", "setting": "[2]", "value": "> 45 µM (inactive)"},
      {"measurement": "GI50", "setting": "[3]", "value": "> 100 µM (inactive)"},
      {"measurement": "GI50", "setting": "[4]", "value": "> 100 µM (inactive)"},
      {"measurement": "GI50", "setting": "[5]", "value": "> 100 µM (inactive)"},
      {"measurement": "GI50", "setting": "[6]", "value": "> 43.9 µM (inactive)"},
      {"measurement": "GI50", "setting": "[7]", "value": "59.6 µM (inactive)"},
      {"measurement": "GI50", "setting": "[8]", "value": "> 100 µM (inactive)"},
      {"measurement": "GI50", "setting": "[9]", "value": "> 100 µM (inactive)"},
      {"measurement": "GI50", "setting": "[10]", "value": "> 100 µM (inactive)"},
      {"measurement": "GI50", "setting": "[11]", "value": "> 100 µM (inactive)"},
      {"measurement": "GI50", "setting": "[12]", "value": "> 100 µM (inactive)"},
      {"measurement": "GI50", "setting": "[13]", "value": "> 100 µM (inactive)"},
      {"measurement": "GI50", "setting": "[14]", "value": "> 100 µM (inactive)"},
      {"measurement": "GI50", "setting": "[16]", "value": "> 100 µM (inactive)"},
      {"measurement": "GI50", "setting": "[17]", "value": "> 39.3 µM (inactive)"},
      {"measurement": "GI50", "setting": "[18]", "value": "> 100 µM (inactive)"}
    ]},
    {"smiles": "COC(=O)N1C=CC2=C(C)C3Nc4ccccc4C3C(C)=C2C1", "note": "(stereo unspecified)", "values": [
      {"measurement": "GI50", "setting": "[1]", "value": "0.726 µM (active)"},
      {"measurement": "GI50", "setting": "[2]", "value": "1.15 µM (inactive)"},
      {"measurement": "GI50", "setting": "[3]", "value": "1.47 µM (inactive)"},
      {"measurement": "GI50", "setting": "[5]", "value": "1.64 µM (inactive)"},
      {"measurement": "GI50", "setting": "[6]", "value": "2.78 µM (inactive)"},
      {"measurement": "GI50", "setting": "[7]", "value": "0.234 µM (active)"},
      {"measurement": "GI50", "setting": "[8]", "value": "1.61 µM (inactive)"},
      {"measurement": "GI50", "setting": "[9]", "value": "2.72 µM (inactive)"},
      {"measurement": "GI50", "setting": "[10]", "value": "1.94 µM (inactive)"},
      {"measurement": "GI50", "setting": "[11]", "value": "4.2 µM (inactive)"},
      {"measurement": "GI50", "setting": "[12]", "value": "1.47 µM (inactive)"},
      {"measurement": "GI50", "setting": "[13]", "value": "2.24 µM (inactive)"},
      {"measurement": "GI50", "setting": "[14]", "value": "0.546 µM (active)"},
      {"measurement": "GI50", "setting": "[15]", "value": "1.01 µM (active)"},
      {"measurement": "GI50", "setting": "[16]", "value": "1.66 µM (inactive)"},
      {"measurement": "GI50", "setting": "[17]", "value": "3.1 µM (inactive)"},
      {"measurement": "GI50", "setting": "[18]", "value": "3.21 µM (inactive)"}
    ]},
    {"smiles": "COC(=O)C1=CC2C=CC(C1C(=O)OC)C1C(C(=O)OC)=C(C(=O)OC)C(C(=O)OC)=C(C(=O)OC)C21OC", "note": "(stereo unspecified)", "values": [
      {"measurement": "GI50", "setting": "[2]", "value": "> 100 µM (inactive)"},
      {"measurement": "GI50", "setting": "[3]", "value": "> 100 µM (inactive)"},
      {"measurement": "GI50", "setting": "[5]", "value": "> 100 µM (inactive)"},
      {"measurement": "GI50", "setting": "[6]", "value": "> 100 µM (inactive)"},
      {"measurement": "GI50", "setting": "[7]", "value": "> 100 µM (inactive)"},
      {"measurement": "GI50", "setting": "[8]", "value": "> 100 µM (inactive)"},
      {"measurement": "GI50", "setting": "[9]", "value": "> 100 µM (inactive)"},
      {"measurement": "GI50", "setting": "[10]", "value": "> 100 µM (inactive)"},
      {"measurement": "GI50", "setting": "[11]", "value": "> 100 µM (inactive)"},
      {"measurement": "GI50", "setting": "[12]", "value": "> 100 µM (inactive)"},
      {"measurement": "GI50", "setting": "[13]", "value": "> 100 µM (inactive)"},
      {"measurement": "GI50", "setting": "[14]", "value": "> 100 µM (inactive)"},
      {"measurement": "GI50", "setting": "[15]", "value": "> 100 µM (inactive)"},
      {"measurement": "GI50", "setting": "[16]", "value": "> 100 µM (inactive)"},
      {"measurement": "GI50", "setting": "[17]", "value": "> 100 µM (inactive)"},
      {"measurement": "GI50", "setting": "[18]", "value": "> 100 µM (inactive)"}
    ]},
    {"smiles": "CCOc1ccccc1NC(=O)CC1SC(Nc2ccc([N+](=O)[O-])cc2)=NC1=O", "note": "(stereo unspecified)", "values": [
      {"measurement": "GI50", "setting": "[1]", "value": "17.2 µM (inactive)"},
      {"measurement": "GI50", "setting": "[2]", "value": "19.5 µM (inactive)"},
      {"measurement": "GI50", "setting": "[3]", "value": "23.2 µM (inactive)"},
      {"measurement": "GI50", "setting": "[4]", "value": "18.7 µM (inactive)"},
      {"measurement": "GI50", "setting": "[5]", "value": "23.3 µM (inactive)"},
      {"measurement": "GI50", "setting": "[6]", "value": "25.4 µM (inactive)"},
      {"measurement": "GI50", "setting": "[7]", "value": "19 µM (inactive)"},
      {"measurement": "GI50", "setting": "[8]", "value": "20.4 µM (inactive)"},
      {"measurement": "GI50", "setting": "[9]", "value": "29.1 µM (inactive)"},
      {"measurement": "GI50", "setting": "[10]", "value": "29.9 µM (inactive)"},
      {"measurement": "GI50", "setting": "[12]", "value": "18.3 µM (inactive)"},
      {"measurement": "GI50", "setting": "[13]", "value": "23.2 µM (inactive)"},
      {"measurement": "GI50", "setting": "[14]", "value": "28.8 µM (inactive)"},
      {"measurement": "GI50", "setting": "[15]", "value": "23.1 µM (inactive)"},
      {"measurement": "GI50", "setting": "[16]", "value": "25.4 µM (inactive)"},
      {"measurement": "GI50", "setting": "[17]", "value": "14.3 µM (inactive)"},
      {"measurement": "GI50", "setting": "[18]", "value": "17.3 µM (inactive)"}
    ]},
    {"smiles": "CN1C(=O)CCC2[C@@H]3CC=C4C[C@@H](O)CC[C@]4(C)C3CC[C@@]21C", "note": "(stereo partly specified)", "values": [
      {"measurement": "GI50", "setting": "[1]", "value": "36.1 µM (inactive)"},
      {"measurement": "GI50", "setting": "[3]", "value": "96.2 µM (inactive)"},
      {"measurement": "GI50", "setting": "[4]", "value": "59.8 µM (inactive)"},
      {"measurement": "GI50", "setting": "[5]", "value": "83.6 µM (inactive)"},
      {"measurement": "GI50", "setting": "[6]", "value": "50.6 µM (inactive)"},
      {"measurement": "GI50", "setting": "[7]", "value": "18.5 µM (inactive)"},
      {"measurement": "GI50", "setting": "[8]", "value": "> 100 µM (inactive)"},
      {"measurement": "GI50", "setting": "[9]", "value": "97.7 µM (inactive)"},
      {"measurement": "GI50", "setting": "[11]", "value": "45.9 µM (inactive)"},
      {"measurement": "GI50", "setting": "[12]", "value": "> 100 µM (inactive)"},
      {"measurement": "GI50", "setting": "[13]", "value": "> 100 µM (inactive)"},
      {"measurement": "GI50", "setting": "[14]", "value": "> 100 µM (inactive)"},
      {"measurement": "GI50", "setting": "[15]", "value": "> 100 µM (inactive)"},
      {"measurement": "GI50", "setting": "[16]", "value": "> 100 µM (inactive)"},
      {"measurement": "GI50", "setting": "[17]", "value": "> 100 µM (inactive)"},
      {"measurement": "GI50", "setting": "[18]", "value": "20.3 µM (inactive)"}
    ]}
  ]
}
